Values of other authors in US5631296A, “Drugs containing S(+)-ibuprofen” (priority 1992, dated 1997).

How the values were obtained:
serum proteins = details: stereoselective
[1] = tested on: cyclooxygenase subunit of the enzyme prostaglandin synthease
[2] = comparatively low dosage
skin inflammation = details: healthy test subjects, relative to racemate
arthritic patients = details: daily dose well below the conventional racemate dosage
humans = details: U.S. Pat. No. 4,851,444

Structure (SMILES) | binding to the serum proteins (serum proteins) | toxic effects directly attributable to accumulation of R(-) in fatty tissue (chronic administration of the racemate) | accumulation of the R(-) enantiomer in the fatty tissue (in vivo) | inhibition of prostaglandin synthesis (mechanism of action found in vitro) [1] | therapeutic action relative to the racemate [2] | analgesic action (rhesus monkeys) | dose-effect curve in skin inflammation model (skin inflammation) | therapeutic effect in arthritic patients (arthritic patients) | onset and intensity of analgesic effect versus identical amounts of the racemate (humans)
CC(C)Cc1ccc([C@@H](C)C(=O)O)cc1 [R(-)-ibuprofen] | competing for the binding site |  |  |  |  |  |  |  | 
CC(C)Cc1ccc(C(C)C(=O)O)cc1 (racemic) [racemate, 2-(4-isobutylphenyl)propionic acid] |  | no toxic effects have so far been observed | leads to an accumulation of the R(-) enantiomer in the fatty tissue |  |  |  |  |  | 
CC(C)Cc1ccc([C@H](C)C(=O)O)cc1 [S(+)-ibuprofen] | competing for the binding site |  |  | found in vitro only for the S(+) enantiomer | the same therapeutic action as the racemate | stronger analgesic action | shifted towards lower dosage relative to that of the racemate | good therapeutic effect | starts more rapidly and is more intense
